Reference: paper PMC6745035, “Novel tetrahydroacridine derivatives with iodobenzoic moieties induce G0/G1 cell cycle arrest and apoptosis in A549 non-small lung cancer and HT-29 colorectal cancer cells” (Molecular and Cellular Biochemistry, 2019)
“Also recorded” adds a separate entry of the source. Values belong to the compound of their own block, whether it stands above or below them.

Assays:
SH-SY5Y cells [1] = assay: Cytoprotection against rotenone/oligomycin A, pre-incubation, MTT; format: cell-based, human; settings: for Cytoprotection: pre-incubation with rotenone/oligomycin A; for Cytoprotective properties in the pre-incubation assay (in words): rotenone/oligomycin A, range of concentration 1–0.001 µM;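 as to Cytoprotection: Toxic mixture Rotenone 30 µM plus Oligomycin A 10 µM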
Protocol: Rotenone with oligomycin A (R/O) were taken to induce mitochondrial ROS by blocking of complexes I and V of the mitochondrial electron transport chain. It causes free radical production and blockade of ATP synthesis. In the pre-incubation experiment, it could be assessed whether the compounds have cytoprotective properties due to the activation of endogenous antioxidant pathways. In the co-incubation could be shown whether compounds are free-radical scavengers. MTT assay was a test of choice, because in this assay mitochondrial activity is measured. […] It can be determined whether novel compound would protect cells from both apoptotic and necrotic death resulting from the increase of intracellular ROS. In both experiments, trolox was used as a reference compound. […] After this time, toxic mixture was added, and cells were maintained for an additional 24 h in the presence of the compounds.

SH-SY5Y cells [2] = assay: Cytoprotection against H2O2 (100 µM), MTT; settings: for Cells viability (%) ± SD after 24 h of incubation with compound and H2O2: H2O2 100 µM, H2O2 only 82.74%
EA.hy926 cells = assay: MTT cytotoxicity assay, EA.hy926; format: cell-based, human; settings: Homo sapiens, EA.hy 926; MTT, 24 h incubation; read-out: IC50 µM ± SD against EA.hy926
Text: The EA.hy926 cells (the human umbilical vein, somatic cell hybrid) (American Type Culture Collection) are immortalized human umbilical vein endothelial cells. They have morphological, phenotypic and functional characteristics of human endothelial cells, without the limited lifespan. This cell line has been considered as a good model for anticancer drug screening and was chosen to evaluate the endothelial cytotoxicity of novel compounds.
(§1) The MTT assay was used to evaluate cell metabolic activity. The test principle is based on the determination of cell viability by measuring the metabolic activity in mitochondria. Enzymatically active mitochondria reduce the water-soluble MTT (3-(4,5-dimethylthiazol-2-yl)-2,5 diphenyltetrazoliumbromide) to blue–violet insoluble formazan. The number of viability cells is proportional to the colour intensity determined by photometric measurements (an analytical wavelength 570 nm) after dissolving the formazan in Dimethylsulfoxide (DMSO) (Serva) and Sorensen’s glycine buffer. MTT (Sigma Aldrich) was dissolved in Phosphate Buffered Saline (PBS) (PAN-Biotech) at a concentration of 0.5 mg/mL. Sorensen’s glycine buffer is made of 0.1 M glycine and 0.1 M NaCl, at pH 10.5. Studied compounds were dissolved in DMSO in order to receive stock solutions.
(§2) For the assay, cells were seeded into 96-well plates at density 10^4 cells per well and cultured for 24 h at 37 °C and 5% CO2. Then medium was removed, and cells were exposed to the 100 µL of the compound solutions over a range of concentrations (final DMSO concentration was below 0.2%) or nothing but culture medium (blank control). Pure DMSO was used as a positive control. After 24 h of incubation with the compound solutions, medium was removed and 50 µL of the MTT solution was added to each well and incubated in the dark for additional 2 h at 37 °C. Then the MTT solution was carefully removed and 100 µL of DMSO was added. Plates were incubated for 10 min at room temperature. Finally, 5 µL of Sorensen Buffer was added to each well. Plate was swayed, and the absorbance was measured by using microplate reader (Synergy H1, BioTek, Winooski, VT, USA) at a wavelength of 570 nm. The cell viability was expressed as a percentage of the control values (blank). The experiments were done in triplicate.

supercoiled pUC19 DNA = settings: 100 µM; human Topoisomerase I
A549 cells = assay: MTT cytotoxicity assay, A549; format: cell-based, human; settings: Homo sapiens, A549; MTT, 24 h incubation; read-out: IC50 µM ± SD against A549
Text: A549 cell line (lung carcinoma from human) (European Collection of Cell Culture) and HT-29 cell line (colorectal adenocarcinoma from human) (American Type Culture Collection) were chosen to evaluate the cytotoxicity of novel compounds.
as §1, §2

HT-29 cells = assay: MTT cytotoxicity assay, HT-29; format: cell-based; settings: Homo sapiens, HT-29; MTT, 24 h incubation; read-out: IC50 µM ± SD against HT-29
Text: as §1, §2

γ-H2AX = assay: Western blot of γ-H2AX, A549; format: cell-based, human; settings: A549, 24 h, IC50 and 1/2IC50
Protocol: (§3) Then, cells were treated with chosen compounds. After 24 h of incubation, monolayer and supernatant were harvested and washed in cold PBS. Cells were centrifuged—monolayer at 1200 rpm for 10 min, supernatant 3500 rpm for 10 min. Pellets were dissolved in RIPA Lysis and Extraction buffer (Bio-Rad) containing Phosphatase Inhibitor Cocktail 3 (Sigma Aldrich) and Protease Inhibitor Cocktail (Sigma Aldrich). Samples were incubated in ice for 30 min and mixed every 10 min. Then, samples were centrifuged at 12,000 rpm for 25 min. Protein concentration in supernatants was measured in triplicate using a Protein Assay (Bio-Rad). Proteins were separated by SDS–polyacrylamide gel electrophoresis. Separating and stacking gels were made of different ratios of water, Tris–HCl pH 6.8 and pH 8.8, 10% SDS (Sigma Aldrich), Acrylamide/bis-acrylamide (Sigma Aldrich), 10% APS (Sigma Aldrich), TEMED (Sigma Aldrich). 7.5% gels were prepared for analysis PARP-1, whereas 12% gels prepared for γ-H2AX. After separation on SDS–polyacrylamide gels, proteins were electroblotted on nitrocellulose membrane in Transfer Buffer (Glycine, Tris, Methanol). Membranes were washed in TBS/0.1% or 0.05% Tween20 solution and blocked in Tris-buffered saline with 5% of non-fated dried milk for 1 h. Membranes were then incubated overnight with primary antibodies—anti-PARP-1 (Cell Signaling Technology), anti-γ-H2A.X (Cell Signaling Technology), anti-β-actin (Cell Signaling Technology) in cold room (6 °C). After incubation, membranes well washed with TBS/Tween solution and blocked with and horseradish peroxidase-conjugated secondary antibodies (Bio-Rad) for 1 h in cold room. Protein bands were visualized using ECL™ Prime Western Blotting Detection Reagents (Sigma Aldrich) Healthcare and Carestream Kodak autoradiography GBX fixer/replenisher (Sigma Aldrich) with Developer and Replenisher (Carestream) in the dark room. Results were obtained on Autoradiography Film (Santa Cruz Biotechnology). Densitometric analysis was performed by using a software program (ImageJ). […]

PARP-1 = assay: Western blot of PARP-1 cleavage, A549; format: cell-based, human; settings: A549, 24 h, IC50 and 1/2IC50
Protocol: as §3

[3] = Homo sapiens, 24 h, read-out: Cells viability (%) ± SD after 24 h of incubation with compound and H2O2

- Intercalation: supercoiled pUC19 DNA band (in words) (supercoiled pUC19 DNA): bands at the same level as EB
SMILES: O=C(NCCCCNc1c2c(nc3ccccc13)CCCC2)c1ccccc1I [Compound 1c]
- Cytoprotection (SH-SY5Y cells [1]; 0.001 µM): 32.91%
- Cytoprotection (SH-SY5Y cells [1]; 0.01 µM): 37.05%
- Cytoprotection (SH-SY5Y cells [1]; 0.1 µM): 33.15%
- Cytoprotection (SH-SY5Y cells [1]; 1 µM): 33.92%
- Cytoprotective properties in the pre-incubation assay (in words) (SH-SY5Y cells [1]): showed their action against oxidative stress in the whole range of concentrations
- viability at 1 µM (SH-SY5Y cells [2]; [3]): 101 ± 1.19%
- IC50 (EA.hy926 cells): 14.3 ± 1.65 µM
- IC50 (A549 cells): 59.1 ± 5.86 µM
- IC50 (HT-29 cells): 13.6 ± 1.39 µM

SMILES: O=C(NCCCNc1c2c(nc3ccccc13)CCCC2)c1ccccc1I [Compound 1b]
- Cytoprotective properties in the pre-incubation assay (in words) (SH-SY5Y cells [1]): did not show cytoprotective properties
- Cells viability (%) ± SD after 24 h of incubation with compound and H2O2 (SH-SY5Y cells [2]; concentration: 1b 16.26, 1c 6.79, 1e 11.75, 1f 4.26, 1i 5.90 µM): 64.61 ± 4.88 %
- Cells viability (%) ± SD after 24 h of incubation with compound and H2O2 (SH-SY5Y cells [2]; concentration: 1b 65.04, 1c 27.16, 1e 46.98, 1f 17.04, 1i 29.74 µM): 17.21 ± 1.18 %
- viability at 1 µM (SH-SY5Y cells [2]; [3]): 99.2 ± 1.67%
- IC50 (EA.hy926 cells): 22.4 ± 2.3 µM
- Intercalation: supercoiled pUC19 DNA band (in words) (supercoiled pUC19 DNA): bands at the same level as EB
- γ-H2AX protein level / DNA damage (in words) (γ-H2AX): slightly lower
- IC50 (A549 cells): 32.5 ± 2.25 µM
- IC50 (HT-29 cells): 16.1 ± 1.55 µM
- Cleaved PARP-1 (89 kDa) level (in words) (PARP-1): comparable apoptotic effect at their IC50 concentrations

- Intercalation: supercoiled pUC19 DNA band (in words) (supercoiled pUC19 DNA): bands at the same level as EB
SMILES: O=C(NCCCNc1c2c(nc3ccccc13)CCCC2)c1cccc(I)c1 [Compound 1e]
- Cytoprotection (SH-SY5Y cells [1]; 0.001 µM): 36.22%
- Cytoprotection (SH-SY5Y cells [1]; 0.01 µM): 51.19%
- Cytoprotection (SH-SY5Y cells [1]; 0.1 µM): 46.39%
- Cytoprotection (SH-SY5Y cells [1]; 1 µM): 24.79%
- Cytoprotective properties in the pre-incubation assay (in words) (SH-SY5Y cells [1]): showed their action against oxidative stress in the whole range of concentrations
- viability at 1 µM (SH-SY5Y cells [2]; [3]): 89.8 ± 8.55%
- IC50 (EA.hy926 cells): 11.7 ± 0.62 µM
- γ-H2AX protein level / DNA damage (in words) (γ-H2AX): strongest effect
- IC50 (A549 cells): 23.5 ± 2.6 µM
- IC50 (HT-29 cells): 11 ± 0.59 µM
- Cleaved PARP-1 (89 kDa) level (in words) (PARP-1): comparable apoptotic effect at their IC50 concentrations; also recorded: highest PARP-1 cleavage was observed for 1/2IC50 (11.75 µM)

SMILES: O=C(NCCCCNc1c2c(nc3ccccc13)CCCC2)c1ccc(I)cc1 [Compound 1i]
- Cytoprotective properties in the pre-incubation assay (in words) (SH-SY5Y cells [1]): did not show cytoprotective properties
- Neuroprotection against H2O2 (in words) (SH-SY5Y cells [2]; H2O2 100 µM, 29.74, 14.87, 5.90 and 1 µM): neuroprotection was not observed at any dose
- viability at 1 µM (SH-SY5Y cells [2]; [3]): 29.7 ± 3.39%
- viability at 5.9 µM (SH-SY5Y cells [2]; [3]): 25.9 ± 1.24%
- viability at 14.87 µM (SH-SY5Y cells [2]; [3]): 20.7 ± 1.45%
- viability at 29.74 µM (SH-SY5Y cells [2]; [3]): 18.7 ± 1.25%
- IC50 (EA.hy926 cells): 11.3 ± 0.89 µM
- γ-H2AX protein level / DNA damage (in words) (γ-H2AX): higher ability to damage DNA at 1/2IC50 concentration (7.44 µM) than at IC50 concentration (14.87 µM)
- IC50 (A549 cells): 14.9 ± 1.06 µM
- IC50 (HT-29 cells): 5.9 ± 0.42 µM
- Cleaved PARP-1 (89 kDa) level (in words) (PARP-1): highest effect
